Where two headings read alike, the source gives them in different places. Numbered stars: 1 amine (or outer) side, 2 acyl side, 3 side chain; on linkers, the order of the positions; unused ones are H or OH. Square brackets hold non-standard residues; d marks the D form. Side chains are listed from the residue outwards. Peptide text beside a SMILES is read from it. * marks the point of attachment. C20 diacid = O=C(O)CCCCCCCCCCCCCCCCCCC(=O)*; γGlu = O=C(O)[C@H](CCC(=O)[*:2])N[*:1]; AEEA = NCCOCCOCC(=O)O; Aib = CC(C)(N)C(=O)O
What was measured:
[1] = Turbidity of crude library peptides (absorbance at 600 nm); assay type: physicochemical; settings: Physical stability of peptides
How it was run: (§1)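 Values reflect mean ThT emission (ex 450, em 480 nm) over 72 h at 40° C, read every 10 min after 5 min shaking at 700 rpm, plus a single initial absorbance at 600 nm for turbidity. Peptides were at 267 μM, pH 4.0 acetate or pH 7.0 phosphate (50 mM), with 4 μM ThT.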

[2] = Fibril formation of crude library peptides (Thioflavin T); assay type: physicochemical; parameters: key: average ThT fluorescence emission at 480 nm (ex 450 nm), raw units; settings: Physical stability of peptides
How it was run: as §1

[3] = molecular target: GLP1R (Homo sapiens, UniProt P43220); assay: hGLP1R potency, cAMP accumulation in CHO-K1 cells stably overexpressing hGLP1R; assay type: cell-based; parameters: host or cells: CHO-K1; settings: for Selectivity: SCTR EC50/GLP1R EC50 ratio; for EC50: cAMP accumulation, CHO-K1 cells overexpressing hGLP1R; for SCTR EC50/GLP1R EC50 ratio: selectivity for hGLP1R over hSCTR, cAMP accumulation in CHO-K1 cells
Chain of GLP1R (P43220 24-463): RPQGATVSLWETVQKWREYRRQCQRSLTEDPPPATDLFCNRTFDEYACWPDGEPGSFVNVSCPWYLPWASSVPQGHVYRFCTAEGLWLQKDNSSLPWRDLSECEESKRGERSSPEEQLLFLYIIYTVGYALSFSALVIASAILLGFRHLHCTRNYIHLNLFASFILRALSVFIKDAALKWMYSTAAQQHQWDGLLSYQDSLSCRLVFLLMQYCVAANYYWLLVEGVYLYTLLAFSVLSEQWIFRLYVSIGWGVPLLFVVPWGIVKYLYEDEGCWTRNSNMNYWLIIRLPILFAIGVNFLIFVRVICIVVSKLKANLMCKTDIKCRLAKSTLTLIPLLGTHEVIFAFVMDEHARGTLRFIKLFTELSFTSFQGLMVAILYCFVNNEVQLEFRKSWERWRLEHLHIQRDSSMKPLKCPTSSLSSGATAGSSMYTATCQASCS
How it was run: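 Potency reflects cAMP accumulation measured by time-resolved fluorescence energy transfer after a 30 min room-temperature stimulation in IBMX-containing (0.5 mM) DPBS with casein. Purified peptides were tested in duplicate over eleven threefold dilutions, and EC50 was obtained from sigmoid concentration-response fitting.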

[4] = molecular target: SCTR (Homo sapiens, UniProt P47872); assay: hSCTR potency, cAMP accumulation in CHO-K1 cells stably overexpressing hSCTR; assay type: cell-based; parameters: alternatively Euroscreen ES-712-AF; FAST-0161L; host or cells: CHO-K1; settings: cAMP accumulation, CHO-K1 cells overexpressing hSCTR
Chain of SCTR (P47872 23-440): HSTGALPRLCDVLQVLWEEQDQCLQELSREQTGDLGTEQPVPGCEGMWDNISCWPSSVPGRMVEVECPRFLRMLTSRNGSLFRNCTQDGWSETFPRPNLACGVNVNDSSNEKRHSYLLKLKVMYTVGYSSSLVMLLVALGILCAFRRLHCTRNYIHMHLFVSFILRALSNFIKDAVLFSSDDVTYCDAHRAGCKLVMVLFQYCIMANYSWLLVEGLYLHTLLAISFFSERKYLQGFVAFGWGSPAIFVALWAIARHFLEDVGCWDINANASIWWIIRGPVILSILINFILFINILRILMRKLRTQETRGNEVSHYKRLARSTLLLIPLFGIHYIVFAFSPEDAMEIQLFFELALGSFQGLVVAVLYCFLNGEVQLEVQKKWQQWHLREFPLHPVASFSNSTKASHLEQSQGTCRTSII
How it was run: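 Potency reflects cAMP accumulation after 30 min agonist exposure at room temperature in hSCTR-expressing CHO-K1 cells, with 0.5 mM IBMX present to block phosphodiesterase. EC50 was derived by nonlinear regression.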

[5] = read-out: pEC50 hGLPR1 (converted)
[6] = read-out: pEC50 hSCTR (converted)
[7] = read-out: hGLP1R pEC50 (converted)
[8] = read-out: hSCTR pEC50 (converted)

| SMILES | Turbidity (pH 7) [1] | Fibril formation [2] | Selectivity [3] | EC50 [3, 5] [nM] | EC50 [4, 6] [nM] | EC50 [3, 7] [nM] | SCTR EC50/GLP1R EC50 ratio [3] | EC50 [4, 8] [nM] |
| --- | --- | --- | --- | --- | --- | --- | --- | --- |
| CC(C)C[C@H](NC(=O)[C@H](Cc1ccccc1)NC(=O)[C@H](CCCNC(=N)N)NC(=O)[C@H](CCC(N)=O)NC(=O)[C@H](CO)NC(=O)[C@H](C)NC(=O)[C@H](C)NC(=O)[C@H](CCC(=O)O)NC(=O)[C@H](CCC(=O)O)NC(=O)[C@H](CCCCNC(=O)COCCOCCNC(=O)COCCOCCNC(=O)CC[C@H](NC(=O)CCCCCCCCCCCCCCCCCCC(=O)O)C(=O)O)NC(=O)[C@H](CC(C)C)NC(=O)[C@@H](NC(=O)[C@H](CO)NC(=O)[C@@H](NC(=O)[C@H](CC(=O)O)NC(=O)[C@H](CO)NC(=O)[C@@H](NC(=O)[C@H](Cc1ccccc1)NC(=O)[C@@H](NC(=O)CNC(=O)[C@H](CCC(=O)O)NC(=O)C(C)(C)NC(=O)[C@@H](N)Cc1c[nH]cn1)[C@@H](C)O)[C@@H](C)O)C(C)C)[C@@H](C)O)C(=O)N[C@@H](CCC(=O)O)C(=O)N[C@@H](Cc1c[nH]cn1)C(=O)N[C@@H](CC(C)C)C(=O)N[C@H](C(N)=O)C(C)C [compound 6] (H-H[Aib]EGTFTSDVSTLK([AEEA-AEEA-γGlu-C20 diacid])EEAASQRFLEHLV-NH2) | 0.09 | 6489 | 11820 | 0.0316 | 316 | – | – | – |
| CC(C)C[C@H](NC(=O)[C@H](CCC(=O)O)NC(=O)[C@H](CCCCNC(=O)COCCOCCNC(=O)COCCOCCNC(=O)CC[C@H](NC(=O)CCCCCCCCCCCCCCCCCCC(=O)O)C(=O)O)NC(=O)[C@H](CC(C)C)NC(=O)[C@@H](NC(=O)[C@H](CO)NC(=O)[C@@H](NC(=O)[C@H](CC(=O)O)NC(=O)[C@H](CO)NC(=O)[C@@H](NC(=O)[C@H](Cc1ccccc1)NC(=O)[C@@H](NC(=O)CNC(=O)[C@H](CCC(=O)O)NC(=O)C(C)(C)NC(=O)[C@@H](N)Cc1c[nH]cn1)[C@@H](C)O)[C@@H](C)O)C(C)C)[C@@H](C)O)C(=O)N[C@@H](C)C(=O)N[C@@H](C)C(=O)N[C@H](C(=O)N[C@@H](CCC(N)=O)C(=O)N[C@@H](CCCNC(=N)N)C(=O)N[C@@H](Cc1ccccc1)C(=O)N[C@@H](CC(C)C)C(=O)N[C@@H](CCC(=O)O)C(=O)N[C@@H](Cc1c[nH]cn1)C(=O)N[C@@H](CC(C)C)C(=O)N[C@H](C(N)=O)C(C)C)[C@@H](C)O [compound 67] (H-H[Aib]EGTFTSDVSTLK([AEEA-AEEA-γGlu-C20 diacid])ELAATQRFLEHLV-NH2) | 0.08 | 5041 | 7155 | 0.0501 | 398 | – | – | – |
| CC(C)C[C@H](NC(=O)[C@H](Cc1ccccc1)NC(=O)[C@H](CCCNC(=N)N)NC(=O)[C@H](CCC(N)=O)NC(=O)[C@H](CC(C)C)NC(=O)C(C)(C)NC(=O)[C@H](C)NC(=O)[C@H](CCC(=O)O)NC(=O)[C@H](CCC(=O)O)NC(=O)[C@H](CCCCNC(=O)COCCOCCNC(=O)COCCOCCNC(=O)CC[C@H](NC(=O)CCCCCCCCCCCCCCCCCCC(=O)O)C(=O)O)NC(=O)[C@H](CC(C)C)NC(=O)[C@H](Cc1ccc(O)cc1)NC(=O)[C@H](CO)NC(=O)[C@@H](NC(=O)[C@H](CC(=O)O)NC(=O)[C@H](CO)NC(=O)[C@@H](NC(=O)[C@H](Cc1ccccc1)NC(=O)[C@@H](NC(=O)CNC(=O)[C@H](Cc1c[nH]c2ccccc12)NC(=O)C(C)(C)NC(=O)[C@@H](N)Cc1c[nH]cn1)[C@@H](C)O)[C@@H](C)O)C(C)C)C(=O)N[C@@H](CCC(=O)O)C(=O)N[C@@H](Cc1c[nH]cn1)C(=O)N[C@@H](CC(C)C)C(=O)N[C@H](C(N)=O)C(C)C [compound 160] (H-H[Aib]WGTFTSDVSYLK([AEEA-AEEA-γGlu-C20 diacid])EEA[Aib]LQRFLEHLV-NH2) | 0.09 | 4754 | – | – | – | 0.794 | 33562 | 25100 |
| CC(C)C[C@H](NC(=O)[C@H](Cc1ccccc1)NC(=O)[C@H](CCCNC(=N)N)NC(=O)[C@H](CCC(N)=O)NC(=O)C(C)(C)NC(=O)[C@H](C)NC(=O)[C@H](C)NC(=O)[C@@H](NC(=O)[C@H](CCC(=O)O)NC(=O)[C@H](CCCCNC(=O)COCCOCCNC(=O)COCCOCCNC(=O)CC[C@H](NC(=O)CCCCCCCCCCCCCCCCCCC(=O)O)C(=O)O)NC(=O)[C@H](CC(C)C)NC(=O)[C@H](CCC(=O)O)NC(=O)[C@H](CO)NC(=O)[C@@H](NC(=O)[C@H](CC(=O)O)NC(=O)[C@H](CO)NC(=O)[C@@H](NC(=O)[C@H](Cc1ccccc1)NC(=O)[C@@H](NC(=O)CNC(=O)[C@H](CCC(=O)O)NC(=O)C(C)(C)NC(=O)[C@@H](N)Cc1c[nH]cn1)[C@@H](C)O)[C@@H](C)O)C(C)C)[C@@H](C)O)C(=O)N[C@@H](CCC(=O)O)C(=O)N[C@@H](Cc1c[nH]cn1)C(=O)N[C@@H](CC(C)C)C(=O)N[C@H](C(N)=O)C(C)C [compound 45] (H-H[Aib]EGTFTSDVSELK([AEEA-AEEA-γGlu-C20 diacid])ETAA[Aib]QRFLEHLV-NH2) | 0.09 | 14290 | 86896 | 0.02 | 2000 | – | – | – |
| CC[C@H](C)[C@H](NC(=O)[C@H](Cc1ccccc1)NC(=O)[C@H](CCCNC(=N)N)NC(=O)[C@H](CCC(N)=O)NC(=O)[C@H](CC(C)C)NC(=O)[C@H](C)NC(=O)[C@H](C)NC(=O)CNC(=O)[C@H](CCC(=O)O)NC(=O)[C@H](CC(C)C)NC(=O)[C@H](CC(C)C)NC(=O)[C@@H](NC(=O)[C@H](CO)NC(=O)[C@@H](NC(=O)[C@H](CC(=O)O)NC(=O)[C@H](CO)NC(=O)[C@@H](NC(=O)[C@H](Cc1ccccc1)NC(=O)[C@@H](NC(=O)CNC(=O)[C@H](CCC(=O)O)NC(=O)C(C)(C)NC(=O)[C@@H](N)Cc1c[nH]cn1)[C@@H](C)O)[C@@H](C)O)C(C)C)C(C)C)C(=O)N[C@@H](CCC(N)=O)C(=O)N[C@@H](Cc1c[nH]c2ccccc12)C(=O)N[C@@H](CC(C)C)C(=O)N[C@H](C(N)=O)C(C)C [compound 184] (H-H[Aib]EGTFTSDVSVLLEGAALQRFIQWLV-NH2) | 0.43 | 260000 | – | – | – | 0.0251 | 10252 | 251 |
| CC[C@H](C)[C@H](NC(=O)[C@H](CO)NC(=O)[C@@H](NC(=O)[C@H](CC(=O)O)NC(=O)[C@H](CO)NC(=O)[C@@H](NC(=O)[C@H](Cc1ccccc1)NC(=O)[C@@H](NC(=O)CNC(=O)[C@H](CCC(=O)O)NC(=O)C(C)(C)NC(=O)[C@@H](N)Cc1c[nH]cn1)[C@@H](C)O)[C@@H](C)O)C(C)C)C(=O)N[C@@H](CC(C)C)C(=O)N[C@@H](CCCCNC(=O)COCCOCCNC(=O)COCCOCCNC(=O)CC[C@H](NC(=O)CCCCCCCCCCCCCCCCCCC(=O)O)C(=O)O)C(=O)N[C@@H](CCC(=O)O)C(=O)N[C@@H](CCC(=O)O)C(=O)N[C@@H](C)C(=O)NC(C)(C)C(=O)N[C@@H](CC(C)C)C(=O)N[C@@H](CCC(N)=O)C(=O)N[C@@H](CCCNC(=N)N)C(=O)N[C@@H](Cc1ccccc1)C(=O)N[C@@H](CC(C)C)C(=O)N[C@@H](CCC(=O)O)C(=O)N[C@@H](Cc1c[nH]cn1)C(=O)N[C@@H](CC(C)C)C(=O)N[C@H](C(N)=O)C(C)C [compound 172] (H-H[Aib]EGTFTSDVSILK([AEEA-AEEA-γGlu-C20 diacid])EEA[Aib]LQRFLEHLV-NH2) | 0.08 | 2942 | – | – | – | 0.0158 | 1279 | 20 |
